Measurements: patent publication US4218562A, “Antibiotic derivatives of XK-62-2” (Abbott Laboratories, priority 1978, dated 1980)
≈ marks a conversion by molar mass, not a printed value.

Assays:
Assay type in all cases: cell-based
[1] = system: Pseudomanas aeruginosa BMH 1; experiment: Agar dilution MIC, pH 8.0: Pseudomonas aeruginosa BMH 1; settings: BMH1, agar-dilution method, pH 8.0, read-out: Minimum Inhibitory Concentration
[2] = system: Escherichia coli ATCC 26; experiment: Agar dilution MIC, pH 8.0: Escherichia coli ATCC 26; settings: ATCC26, agar-dilution method, pH 8.0, read-out: Minimum Inhibitory Concentration
[3] = system: strains of Escherichia coli having an R factor; experiment: Anti-bacterial activity against Escherichia coli having an R factor; settings: E. coli having an R factor which shows resistance to known aminoglycoside antibiotics
[4] = system: Staphylococcus aureus ATCC 6538P; experiment: Agar dilution MIC, pH 8.0: Staphylococcus aureus ATCC 6538P; settings: ATCC6538P, agar-dilution method, pH 8.0, read-out: Minimum Inhibitory Concentration
[5] = system: Shigella seanei ATCC 9250; experiment: microbe, parasite or virus in culture; settings: ATCC9250, agar-dilution method, pH 8.0, read-out: Minimum Inhibitory Concentration
[6] = system: Escherichia coli KY 8348; experiment: Agar dilution MIC, pH 8.0: Escherichia coli KY 8348; settings: for MIC: Escherichia coli, KY8348, agar-dilution method, pH 8.0, strain produces gentamicin acetyltransferase Type I, read-out: Minimum Inhibitory Concentration; for anti-bacterial activity: comparison of MIC in Table 1, E. coli KY 8348
Excerpt: (§1) The former bacterium inactivates kanamycins and gentamicins by adenylation, and the latter inactivates gentamicins by acetylation.

[7] = system: Bacillus subtilis No. 10707; experiment: Agar dilution MIC, pH 8.0: Bacillus subtilis No. 10707; settings: NO.10707, agar-dilution method, pH 8.0, read-out: Minimum Inhibitory Concentration
[8] = system: Escherichia coli KY 8327; experiment: Agar dilution MIC, pH 8.0: Escherichia coli KY 8327; settings: for MIC: Escherichia coli, KY8327, agar-dilution method, pH 8.0, strain produces gentamicin adenyltransferase, read-out: Minimum Inhibitory Concentration; for anti-bacterial activity: comparison of MIC in Table 1, E. coli KY 8327
Excerpt: as §1

[9] = system: Proteus vulgaris ATCC 6897; experiment: Agar dilution MIC, pH 8.0: Proteus vulgaris ATCC 6897; settings: ATCC6897, agar-dilution method, pH 8.0, read-out: Minimum Inhibitory Concentration
[10] = system: Krobsiella pneumoniae ATCC 10081; experiment: Agar dilution MIC, pH 8.0: Krobsiella pneumoniae ATCC 10081; settings: agar-dilution method, pH 8.0; read-out: Minimum Inhibitory Concentration
[11] = system: Salmanella typhosa ATCC 9992; experiment: microbe, parasite or virus in culture; settings: agar-dilution method, pH 8.0; read-out: Minimum Inhibitory Concentration
[12] = system: various bacteria having a resistance to at least one of gentamicin antibiotics and XK-62-2; experiment: Antibacterial activity against resistant bacteria (summary of Table 2); settings: bacteria producing gentamicin adenyltransferase and/or gentamicin acetyltransferase Type I and Type II; from Table 2
[13] = system: Pseudomonas aeruginosa BMH No. 1; experiment: Agar dilution MIC, pH 7.2: Pseudomonas aeruginosa BMH No. 1; settings: BMHNO.1, agar dilution method, pH 7.2, read-out: Minimum Inhibitory Concentration
[14] = system: Sarcina lucca ATCC 9341; experiment: Agar dilution MIC, pH 7.2: Sarcina lucca ATCC 9341; settings: ATCC9341, pH 7.2, read-out: Minimum Inhibitory Concentration
[15] = system: Bacillus subtillus ATCC 6688; experiment: Agar dilution MIC, pH 7.2: Bacillus subtillus ATCC 6688; settings: ATCC6688, agar dilution method, pH 7.2, read-out: Minimum Inhibitory Concentration

Compound	MIC [1] [µg/mL]	MIC [2] [µg/mL]	anti-bacterial activity [3]	MIC [4] [µg/mL]	MIC [5] [µg/mL]	MIC [6] [µg/mL]	anti-bacterial activity [6]	MIC [7] [µg/mL]	MIC [8] [µg/mL]	anti-bacterial activity [8]	MIC [9] [µg/mL]	MIC [10] [µg/mL]	MIC [11] [µg/mL]	antibacterial activity [12]	MIC [13] [µg/mL]	MIC [14] [µg/mL]	MIC [15] [µg/mL]
CNC[C@@H]1CC[C@@H](NC(=O)[C@@H](O)CCN)[C@@H](O[C@H]2[C@H](O)[C@@H](O[C@H]3OC[C@](C)(O)[C@H](NC)[C@H]3O)[C@H](N)C[C@@H]2N)O1 [Compound I, 2'-N-[L-(-)-α-hydroxy-γ-aminobutyryl]XK-62-2]	25 (≈ 44.3 µM)	0.39 (≈ 0.691 µM)	strong anti-bacterial activity	0.05 (≈ 0.0885 µM)	0.39 (≈ 0.691 µM)	0.05 (≈ 0.0885 µM)	strong anti-bacterial activity	0.05 (≈ 0.0885 µM)	3.1 (≈ 5.49 µM)	strong anti-bacterial activity	0.39 (≈ 0.691 µM)	0.1 (≈ 0.177 µM)	0.2 (≈ 0.354 µM)				
CNC[C@@H]1CC[C@@H](N)[C@@H](O[C@H]2[C@H](O)[C@@H](O[C@H]3OC[C@](C)(O)[C@H](NC)[C@H]3O)[C@H](NC(=O)[C@@H](O)CCN)C[C@@H]2N)O1 [Compound II, 1-N-[L-(-)-α-hydroxy-γ-aminobutyryl]XK-62-2]			strong anti-bacterial activity	0.016 (≈ 0.0283 µM)			strong anti-bacterial activity		0.016 (≈ 0.0283 µM)	strong anti-bacterial activity	0.065 (≈ 0.115 µM)	0.008 (≈ 0.0142 µM)		very strong antibacterial activity	1.56 (≈ 2.76 µM)	0.4 (≈ 0.708 µM)	0.1 (≈ 0.177 µM)
CNC[C@@H]1CC[C@@H](NC(=O)[C@@H](O)CCN)[C@@H](O[C@H]2[C@H](O)[C@@H](O[C@H]3OC[C@](C)(O)[C@H](NC)[C@H]3O)[C@H](NC(=O)[C@@H](O)CCN)C[C@@H]2N)O1 [III, 1-N-2'-N-bis-[L-(-)-α-hydroxy-γ-aminobutyryl]XK -62-2]	8.34 (≈ 12.5 µM)	0.065 (≈ 0.0976 µM)	strong anti-bacterial activity	0.065 (≈ 0.0976 µM)	0.26 (≈ 0.391 µM)	0.065 (≈ 0.0976 µM)	strong anti-bacterial activity	0.008 (≈ 0.012 µM)	0.065 (≈ 0.0976 µM)	strong anti-bacterial activity	0.521 (≈ 0.783 µM)	0.065 (≈ 0.0976 µM)					
